# Results: patent US20250064761A1, “SUBSTITUTED BENZAMIDES AND THEIR USE IN THERAPY” (PHARMACYL AB, priority 2018, published 2025)
# Structures can show the parent of a compound that is named as a salt.
# Tests used:
# [1] = test system: LPS-induced TNF-production in RAW264.7 murine macrophage cells; experiment: Suppression of LPS-induced TNF-α production in macrophages (ELISA); type: cell-based; details: Mus musculus, RAW264.7, read-out: % Inhibition of TNF-production
# Description: The RAW264.7 macrophage line was maintained in DMEM supplemented with 5% FBS at 37° C. in a 5% CO2-humidified air environment. The RAW264.7 cells were seeded in 96-well plates at a density of 1×10^5/ml and a volume of 200 μl/well. The cells were incubated for 24 h in medium supplemented with 10% FBS and were then pre-incubated with or without the indicated concentrations of test substances for 2 h prior to the addition of LPS (1 μg/ml). The supernatants were subsequently harvested at various time points and production of the proinflammatory cytokine TNF-α in the culture medium was determined using a commercially available enzyme-linked immunosorbent assay (ELISA) kit according to the manufacturer's protocol.
# Effects of some AABZs of the invention at 1 mM on LPS-induced TNF-production in RAW264.7 murine macrophage cells are shown in Table 2.
# [2] = test system: DSS induced colitis in Balb/c mice; experiment: Dextran sulfate sodium (DSS) induced inflammatory bowel disease in mice; type: in vivo; set-up: key to Blood in the Stool score LS means ± SE: 0 = normal, 2 = Hemoccult+, 4 = gross bleeding; key to Disease Activity Index LS means ± SE: sum of stool, blood and weight-loss scores (each 0-4), max 12
# Description: The experiment was performed using 6- to 8-week old female Balb/c mice after a one-week acclimatization period. The mice weighed 18-25 g, were purchased from Taconic (Denmark) and were maintained in a temperature and light-controlled facility with free access to standard rodent chow and water. Mice were randomized to the respective groups five days before start of treatment and were kept 5 to 6 animals […] per cage. […] The DSS intake was assessed daily. SASP (from Sigma-Aldrich, Sweden) was first dissolved in 0.2 M sodium hydroxide (NaOH) at a concentration higher than the required final concentration. Phosphate buffered saline (PBS) was added to the desired concentration and the pH was adjusted to 7.5-8.0 with NaOH or hydrochloric acid. SASP remained completely dissolved at this pH. Cpd A was dissolved in PBS to the desired concentration. All animal groups had free access to 5% DSS water solution for the entire test period. Treatments were administered from day 0 to day 5, either orally by gavage (SASP) or intraperitoneally (Cpd A), and in an administration volume of 5 ml/kg, twice daily with approximately an 8-hour interval. The control group (DSS only) received water (0.2 ml) orally twice daily.
# The parameters recorded in the experiment were stool consistency (0, normal; 2, loose stools; 4, watery diarrhoea), occurrence of blood in the stool (0, normal; 2, Hemoccult+; 4, gross bleeding), and body weight loss (0, none; 1, 1-5%; 2, 5-10%; 3, 10-20%; 4, >20%). Disease activity index (DAI) was calculated by summarizing the scores of these three parameters. Also the colon length and the colonic content of myeloperoxidase (MPO) were recorded. Data was statistically evaluated with analysis of variance (ANOVA). Least-squares means (LS means), and standard error (SE) of LS means were calculated.
# dopamine D2 receptor = dopamine D2 receptor (Rattus norvegicus, UniProt P61169); type: binding; details: in vitro; 125I-spiperone
# Chain of dopamine D2 receptor (P61169 whole entry, looked up): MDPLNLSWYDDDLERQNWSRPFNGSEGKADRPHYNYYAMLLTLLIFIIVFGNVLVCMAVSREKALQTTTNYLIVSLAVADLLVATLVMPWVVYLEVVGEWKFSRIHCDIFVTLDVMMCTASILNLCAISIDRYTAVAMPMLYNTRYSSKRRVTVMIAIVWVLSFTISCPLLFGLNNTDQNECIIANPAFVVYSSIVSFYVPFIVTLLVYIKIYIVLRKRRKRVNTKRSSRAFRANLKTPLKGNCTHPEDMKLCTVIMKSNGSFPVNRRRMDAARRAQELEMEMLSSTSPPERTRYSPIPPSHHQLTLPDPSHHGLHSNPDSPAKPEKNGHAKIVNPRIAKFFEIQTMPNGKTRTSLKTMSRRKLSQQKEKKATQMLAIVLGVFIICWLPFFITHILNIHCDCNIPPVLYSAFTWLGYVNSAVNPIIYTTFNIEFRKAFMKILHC
# [3] = test system: collagen-induced arthritis in DBA/1 mice; experiment: Collagen-induced arthritis; type: in vivo; details: 200 mg/kg/day in drinking water from day 14 to day 49
# Description: The experiment was performed using 9-week old male DBA/1 mice after a two-week acclimatization period. The mice were purchased from B&M (Denmark), and were maintained in a temperature and light-controlled facility with free access to standard rodent chow and water. Following the acclimatization period, the mice (10 per treatment group) were anesthesized with Enflurane and immunized intradermally in the base of the tail with […] of a 1:1 emulsion consisting of Freund's Complete Adjuvant H37Ra (Difco) and 2 mg/mL bovine type II collagen (Elastin Products, Owensville, MO) in 0.1 M acetic acid. On day 14 post-immunization, the mice were given ad lib access to drinking water containing Cpd A, with treatment continuing daily until termination of the experiment (day 49). The Cpd A intake was monitored by weighing the drinking bottles at the water renewal twice per week. The control group received water ad lib.
# The mice were monitored for clinical signs of arthritis three times a week from immunization to day 49. […] The four measurements were summed for each mouse, and group averages were calculated. Mice with a score >12 were sacrificed. In the scoring protocol, the last observation carried forward (LOCF) method was used.
# Mean onset day was defined as the mean day of onset in mice being affected. […]
# Statistical significance was determined using Mann-Whitney Rank Sum test. […]
smiles,measurement,setting,value
CCC(=O)Nc1ccc(C(=O)NCCN(CC)CC)cc1Cl [4-Propanoylamino-3-chloro-N-[2-(diethylamino)ethyl]benzamide hydrochloride],inhibition at 1000 µM,[1],50%
"O=C(O)c1cc(/N=N/c2ccc(S(=O)(=O)Nc3ccccn3)cc2)ccc1O [SASP, sulfasalazine, reference compound]",frequency of diarrhoea (stool consistency score of 2 and 4),"[2]; day 3, 40 mg/kg/day bid po",8%
same,Blood in the Stool Percent Reduction of Score vs control,"[2]; day 5, 40 mg/kg/day bid po",42%
same,Blood in the Stool score LS means ± SE,"[2]; day 5, 40 mg/kg/day bid po",1.4±0.2
same,Disease Activity Index LS means ± SE,"[2]; day 5, 40 mg/kg/day bid po",4.4 ± 0.4
same,Disease Activity Index Percent Reduction of Score vs control,"[2]; day 5, 40 mg/kg/day bid po",36%
same,frequency of diarrhoea (stool consistency score of 2 and 4),"[2]; day 5, 40 mg/kg/day bid po",71%
"CCN(CC)CCNC(=O)c1ccc(NC(C)=O)c(Cl)c1 [Cpd A, 4-Acetamido-3-chloro-N-[2-(diethylamino)ethyl]benzamide hydrochloride]",Disease Activity Index score reduction by Cpd A versus SASP treatment,"[2]; Cpd A 100 mg/kg/day bid ip vs SASP 40 mg/kg/day bid po, p<0.016",60%
same,Blood in the Stool Percent Reduction of Score vs control,"[2]; day 5, 50 mg/kg/day bid ip",9%
same,Blood in the Stool score LS means ± SE,"[2]; day 5, 50 mg/kg/day bid ip",2.2 ± 0.3
same,Disease Activity Index LS means ± SE,"[2]; day 5, 50 mg/kg/day bid ip",6.4 ± 0.5
same,Disease Activity Index Percent Reduction of Score vs control,"[2]; day 5, 50 mg/kg/day bid ip",7%
same,Blood in the Stool Percent Reduction of Score vs control,"[2]; day 5, 100 mg/kg/day bid ip",96%
same,Disease Activity Index LS means ± SE,"[2]; day 5, 100 mg/kg/day bid ip",1.7 ± 1.0
same,Disease Activity Index Percent Reduction of Score vs control,"[2]; day 5, 100 mg/kg/day bid ip",75%
same,Blood in the Stool score LS means ± SE,"[2]; day 5, 100 mg/kg/day bid ip, hydrochloride",0.1±0.5
same,affinity for the dopamine D2 subtype receptor (in words),dopamine D2 receptor,very low affinity
same,delay of mean onset of disease compared to the control group,[3]; p=0.02,5.8 days
same,reduction of severity of arthritis score compared to the control group,[3]; p=0.05,1.6
same,inhibition at 1000 µM,[1],45%
CCN(CC)CCNC(=O)c1ccc(NC(=O)C(C)C)c(Cl)c1 [4-Isobutyrylamino-3-chloro-N-[2-(diethylamino)ethyl]benzamide hydrochloride],inhibition at 1000 µM,[1],63%
